Reference: patent US11208407B2, “Substituted phenyl compounds as indoleamine 2,3-dioxygenase (IDO) inhibitors” (Merck Sharp & Dohme Corp., priority 2017, dated 2021)

Target: IDO1 (Homo sapiens, UniProt P14902)
Test: IDO1 Cellular Assay in HeLa Cells Stimulated with IFNγ
Assay type: cell-based
Conditions: IFNγ 100 ng/mL, 300 uM L-tryptophan, about 48 hours, read-out: IDO HeLa Cell Assay, IC50
Method: Biological Assays IDO1 Cellular Assay in HeLa Cells Stimulated with IFNγ
HeLa cells were cultured in complete HeLa culture medium (90% EMEM, 10% heat-inactivated fetal bovine serum) and expanded to about 1×10^9 cells. The cells were then collected and frozen down at 1×10^7 cells/vial in 1 mL frozen medium (90% complete HeLa culture medium, 10% DMSO).
Compounds to be tested were serially diluted in ten 3-fold steps in DMSO starting from 10 mM DMSO stocks in Echo low volume plate(s). Compound dilutions or DMSO alone were then dispensed from the dilution plate(s) into Greiner black 384-well assay plate(s) (catalog #781086, 50 nL/well) using an Echo 550 acoustic liquid handler (Labcyte).
Frozen HeLa cells were thawed and transferred into HeLa assay medium (99% complete HeLa culture medium, 1% Pen/Strep) with 20 mL medium/vial of cells. The cells were spun down at 250 g in a table top centrifuge for 5 min and suspended in same volume of HeLa assay medium. The cells were then counted and adjusted to a density of 2×10^5 cells/mL in HeLa assay medium. Sterile L-tryptophan were added to the cells with final concentration of 300 uM L-tryptophan. A small aliquot (2 mL/plate) of HeLa cells were set aside and were not treated with IFNγ, to serve as the Max-E control.
HeLa cells with and without IFNγ were dispensed to the respective wells of 384-well assay plates containing the compounds. The plates were incubated for about 48 hours at a 37° C., 5% CO2 incubator. Afterwards, 12 μL of 0.5 M methyl isonipecotate in dimethyl sulfoxide were added into each well and the plates were sealed and incubated at 37° C. without CO2 overnight. The plates were centrifuged for 1 min at 200×g. The resulting fluorescence was measured in a Spectramax plate reader (Molecular Devices) with a 400 nm excitation filter and a 510 nm emission filter.
The fluorescence intensity of each well was corrected for the background observed in wells with non-IFNγ-treated cells and was expressed as a fraction of the intensity observed in wells of IFNγ-treated cells and DMSO only. Potencies were calculated by linear least squares fit to the four parameter logistic IC50 equation.

Sequence of IDO1 (P14902 whole entry): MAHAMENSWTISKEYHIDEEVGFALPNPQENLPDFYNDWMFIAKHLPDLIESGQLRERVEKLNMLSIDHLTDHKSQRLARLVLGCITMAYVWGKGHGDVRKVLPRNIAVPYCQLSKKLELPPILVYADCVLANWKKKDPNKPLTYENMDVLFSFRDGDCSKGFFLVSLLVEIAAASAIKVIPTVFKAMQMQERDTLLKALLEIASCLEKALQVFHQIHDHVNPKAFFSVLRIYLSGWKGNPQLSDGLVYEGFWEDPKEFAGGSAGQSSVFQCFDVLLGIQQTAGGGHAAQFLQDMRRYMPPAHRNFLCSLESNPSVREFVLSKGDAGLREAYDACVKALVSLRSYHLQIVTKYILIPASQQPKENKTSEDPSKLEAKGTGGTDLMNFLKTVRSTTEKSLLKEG

Row | SMILES | IC50 [nM]
1 | Cn1ccc(Nc2ccc(C3(c4nc5cc(C#N)cnc5[nH]4)CCC3)cc2CO)n1 [Example 21, 2-(1-(3-(Hydroxymethyl)-4-((1-methyl-1H-pyrazol-3-yl)amino)phenyl)cyclobutyl)-3H-imidazo[4,5-b]pyridine-6-carbonitrile] | 819
2 | N#Cc1cnc2nc(C3(c4ccc(C(=O)NC5CCCCC5)cc4)CC(F)(F)C3)[nH]c2c1 [Example 28, 4-(1-(6-Cyano-1H-imidazo[4,5-b]pyridin-2-yl)-3,3-difluorocyclobutyl)-N-cyclohexylbenzamide] | 890
3 | O=C(NC1CCCCC1)c1ccc(C2(c3nc4ncc(C(F)(F)F)cc4[nH]3)CCC2)cc1 [Example 34, N-cyclohexyl-4-{1-[6-(trifluoromethyl)-1H-imidazo[4,5-b]pyridin-2-yl]cyclobutyl}benzamide] | 152
4 | Cc1cc(C2(c3nc4cc(C#N)cnc4[nH]3)CCC2)ccc1NC(=O)c1cccc(C#N)c1 [Example 15, 3-Cyano-N-(4-(1-(6-cyano-3H-imidazo[4,5-b]pyridin-2-yl)cyclobutyl)-2-methylphenyl)benzamide] | 15.9
5 | N#Cc1ccc(F)c(NC(=O)c2ccc(C3(c4nc5ncc(C(F)(F)F)cc5[nH]4)CCC3)cc2)c1 [Example 36, N-(5-cyano-2-fluorophenyl)-4-{1-[6-(trifluoromethyl)-1H-imidazo[4,5-b]pyridin-2-yl]cyclobutyl}benzamide] | 7.69
6 | N#Cc1cnc2[nH]c(C3(c4ccc(NC(=O)OC5CC5)cc4)CCC3)nc2c1 [Example 22, Cyclopropyl (4-(1-(6-cyano-3H-imidazo[4,5-b]pyridin-2-yl)cyclobutyl)phenyl)carbamate] | 41.8
7 | O=C(Nc1cncc(Cl)c1)c1ccc(C2(c3nc4ncc(C(F)(F)F)cc4[nH]3)CCC2)cc1 [Example 33, N-(5-chloropyridin-3-yl)-4-{1-[6-(trifluoromethyl)-1H-imidazo[4,5-b]pyridin-2-yl]cyclobutyl}benzamide] | 9.94
8 | COc1cc(C(F)(F)F)ncc1-c1ccc(C2(c3nc4cc(C(F)(F)F)cnc4[nH]3)COC2)cc1 [Example 41, 2-(3-{4-[4-methoxy-6-(trifluoromethyl)pyridin-3-yl]phenyl}oxetan-3-yl)-6-(trifluoromethyl)-3H-imidazo[4,5-b]pyridine] | 7.64
9 | Cc1cccc(NC(=O)c2ccc(C3(c4nc5ncc(C#N)cc5[nH]4)CC(F)(F)C3)cc2)n1 [Example 29, 4-(1-(6-Cyano-1H-imidazo[4,5-b]pyridin-2-yl)-3,3-difluorocyclobutyl)-N-(6-methylpyridin-2-yl)benzamide] | 590
10 | CC(C)CNC(=O)c1ccc(C2(c3nc4ncc(C(F)(F)F)cc4[nH]3)CCC2)cc1 [Example 35, N-(2-methylpropyl)-4-{1-[6-(trifluoromethyl)-1H-imidazo[4,5-b]pyridin-2-yl]cyclobutyl}benzamide] | 39.6
11 | C=Cc1cc(C2(c3nc4cc(C#N)cnc4[nH]3)CCC2)ccc1Nc1ccn(C)n1 [Example 20, 2-(1-(4-((1-Methyl-1H-pyrazol-3-yl)amino)-3-vinylphenyl)cyclobutyl)-3H-imidazo[4,5-b]pyridine-6-carbonitrile] | 176
12 | N#Cc1cccc(C(=O)Nc2ccc(C3(c4nc5ccc(Cl)cc5[nH]4)CC(O)C3)cc2)c1 (centres unmarked) [Example 23, N-(4-(1-(6-chloro-1H-benzo[d]imidazol-2-yl)-3-hydroxycyclobutyl)phenyl)-3-cyanobenzamide] | 43.4
13 | N#Cc1cccc(C(=O)Nc2ccc(C3(c4nc5cc(C#N)cnc5[nH]4)CCC3)cc2C#N)c1 [Example 14, 3-cyano-N-(2-cyano-4-(1-(6-cyano-3H-imidazo[4,5-b]pyridin-2-yl)cyclobutyl)phenyl)benzamide] | 140

These reach a lower IC50. Values come first.

Row | IC50 [nM] | SMILES
14 | 7.18 | N#Cc1cccc(C(=O)Nc2ccc(C3(c4nc5cc(C#N)cnc5[nH]4)CCC3)cc2Cl)c1 [Example 13, N-(2-chloro-4-(1-(6-cyano-3H-imidazo[4,5-b]pyridin-2-yl)cyclobutyl)phenyl)-3-cyanobenzamide]
15 | 5.09 | N#Cc1cccc(NC(=O)c2ccc(C3(c4nc5ncc(C(F)(F)F)cc5[nH]4)CCC3)cc2)c1 [Example 30, N-(3-cyanophenyl)-4-{1-[6-(trifluoromethyl)-1H-imidazo[4,5-b]pyridin-2-yl]cyclobutyl}benzamide]
16 | 5.09 | N#Cc1cccc(NC(=O)c2ccc(C3(c4nc5ncc(C#N)cc5[nH]4)CC(F)(F)C3)cc2)c1 [Example 38, 4-[1-(6-cyano-1H-imidazo[4,5-b]pyridin-2-yl)-3,3-difluorocyclobutyl]-N-(3-cyanophenyl)benzamide]
17 | 3.18 | N#Cc1cccc(C(=O)Nc2ccc(C3(c4nc5cc(C(F)(F)F)cnc5[nH]4)CCC3)cc2)c1 [Example 6, 3-Cyano-N-(4-(1-(6-(trifluoromethyl)-3H-imidazo[4,5-b]pyridin-2-yl)cyclobutyl)phenyl)benzamide]
18 | 3.01 | O=C(Nc1ccc(C2(c3nc4ccccc4[nH]3)CCC2)cc1)c1cccc(Cl)c1 [Example 4, N-(4-(1-(1H-benzo[d]imidazol-2-yl)cyclobutyl)phenyl)-3-chlorobenzamide]
19 | 2.65 | O=C(Nc1ccc(F)cc1F)c1ccc(C2(c3nc4ncc(C(F)(F)F)cc4[nH]3)CCC2)cc1 [Example 32, N-(2,4-difluorophenyl)-4-{1-[6-(trifluoromethyl)-1H-imidazo[4,5-b]pyridin-2-yl]cyclobutyl}benzamide]
20 | 2.09 | O=C(Nc1cccc(F)c1)c1ccc(C2(c3nc4ncc(C(F)(F)F)cc4[nH]3)CCC2)cc1 [Example 31, N-(3-fluorophenyl)-4-{1-[6-(trifluoromethyl)-1H-imidazo[4,5-b]pyridin-2-yl]cyclobutyl}benzamide]
21 | 2.03 | O=C(Nc1cc(Cl)ccc1F)c1ccc(C2(c3nc4ncc(C(F)(F)F)cc4[nH]3)CCC2)cc1 [Example 37, N-(5-chloro-2-fluorophenyl)-4-{1-[6-(trifluoromethyl)-1H-imidazo[4,5-b]pyridin-2-yl]cyclobutyl}benzamide]
22 | 1.97 | N#Cc1cnc2nc(C3(c4ccc(NC(=O)c5cccc(Cl)c5)cc4)CCC3)[nH]c2c1 [Example 2, 3-Chloro-N-(4-(1-(6-cyano-1H-imidazo[4,5-b]pyridin-2-yl)cyclobutyl)phenyl)benzamide]
23 | 1.73 | O=C(Nc1ccc(C2(c3nc4cc(Br)cnc4[nH]3)CCC2)cc1Cl)c1cccc(Br)c1 [Example 12, 3-Bromo-N-(4-(1-(6-bromo-3H-imidazo[4,5-b]pyridin-2-yl)cyclobutyl)-2-chlorophenyl)benzamide]
